Test results published in ChEMBL document CHEMBL1123114, “Structure-activity relationships of arylimidazopyridine cardiotonics: discovery and inotropic activity of 2-[2-methoxy-4-(methylsulfinyl)phenyl]-1H-imidazo[4,5-c]pyridine” (1985).

Columns and labels:
[1] = organism: Felis catus; assay: Compound tested for contractility in isolated cat papillary muscle at 10 e-4 M.; assay type: functional
[2] = organism: Felis catus; assay: Compound tested for contractility in isolated cat papillary muscle at 10 e-5 M.; assay type: functional
[3] = organism: Felis catus; assay: Response ratio = (percent increase to drug)/(percent increase to 10 E-4 M isoproterenol); assay type: functional
[4] = organism: Felis catus; assay: Response ratio = (percent increase to drug)/(percent increase to 10 E-5 M isoproterenol); assay type: functional
[5] = test system: Canis familiaris; assay: Compound tested for contractility in anesthetized dog when administered intravenously.; assay type: functional; conditions: Canis lupus familiaris, iv
[6] = test system: Canis familiaris; assay: Percent change in heart rate in anesthetized dog; assay type: functional, Canis lupus familiaris
[7] = test system: Canis familiaris; assay: Percent change in mean arterial blood pressure in anesthetized dog; assay type: functional, Canis lupus familiaris

Cc1ccc(-c2nc3cc[nH]cc-3n2)cc1C
Control [1]: 226%
Control [2]: 133%
Response ratio [3]: 1.75
Response ratio [4]: 0.46
ED50 [5]: 5.2 mg/kg
Change [6]: 0%
Change [7]: -53%

Nc1cc(-c2ccncc2)c[nH]c1=O [INAMRINONE]
Control [1]: 190%
Control [2]: 143%
Response ratio [3]: 1.25
Response ratio [4]: 0.61
ED50 [5]: 1.3 mg/kg
Change [6]: 11%
Change [7]: -9%

COc1ccc(-c2nc3cc[nH]cc-3n2)c(OCCSC)c1
Control [1]: 140%
Control [2]: 122%
Response ratio [3]: 0.55
Response ratio [4]: 0.3
ED50 [5]: 1.1 mg/kg
Change [6]: 4%
Change [7]: -21%

CSc1ccc(-c2nc3cc[nH]cc-3n2)cc1
Control [1]: 212%
Control [2]: 115%
Response ratio [3]: 1.55
Response ratio [4]: 0.21
ED50 [5]: 4 mg/kg
Change [6]: 0%
Change [7]: -15%

c1ccc(-c2nc3cc[nH]cc-3n2)cc1
Control [1]: 242%
Control [2]: 106%
Response ratio [3]: 1.97
Response ratio [4]: 0.08
ED50 [5]: 2.5 mg/kg
Change [6]: 13%
Change [7]: -15%

COc1cc(OS(C)(=O)=O)ccc1-c1nc2cc[nH]cc-2n1
Control [1]: 326%
Control [2]: 240%
Response ratio [3]: 3.13
Response ratio [4]: 1.94
ED50 [5]: 0.006 mg/kg
Change [6]: 17%
Change [7]: -25%

COc1ccc(-c2nc3cc[nH]cc-3n2)cc1
Control [1]: 205%
Control [2]: 104%
Response ratio [3]: 1.46
Response ratio [4]: 0.07
ED50 [5]: 1.7 mg/kg
Change [6]: 17%
Change [7]: -14%

COc1cc([S+](C)[O-])ccc1-c1nc2cccnc2[nH]1 (stereo not given) [SULMAZOLE]
Control [1]: 156%
Control [2]: 112%
Response ratio [3]: 0.78
Response ratio [4]: 0.16
ED50 [5]: 0.3 mg/kg
Change [6]: 13%
Change [7]: -10%

COc1ccc(-c2nc3cc[nH]cc-3n2)c(OCC[S+](C)[O-])c1 (stereo not given)
Control [1]: 186%
Control [2]: 123%
Response ratio [3]: 1.19
Response ratio [4]: 0.32
ED50 [5]: 5.2 mg/kg
Change [6]: -4%
Change [7]: -37%

c1ccc(-c2nc3ccc[nH]c-3n2)cc1
Control [1]: 112%
Control [2]: 101%
Response ratio [3]: 0.15
Response ratio [4]: 0.01
ED50 [5]: 8 mg/kg
Change [6]: 7%
Change [7]: -36%

COc1ccc(-c2nc3cc[nH]cc-3n2)c(OC)c1
Control [1]: 172%
Control [2]: 158%
Response ratio [3]: 1
Response ratio [4]: 0.81
ED50 [5]: 0.3 mg/kg
Change [6]: 9%
Change [7]: -17%

COc1cc(S(C)(=O)=O)ccc1-c1nc2ccc[nH]c-2n1
Control [1]: 129%
Control [2]: 120%
Response ratio [3]: 0.4
Response ratio [4]: 0.28
ED50 [5]: 0.4 mg/kg
Change [6]: 10%
Change [7]: -20%

CCCOc1cc(OC)ccc1-c1nc2cc[nH]cc-2n1
Control [1]: 336%
Control [2]: 134%
Response ratio [3]: 3.27
Response ratio [4]: 0.47
ED50 [5]: 1.3 mg/kg
Change [6]: -7%
Change [7]: -59%

CCCOc1cc([S+](C)[O-])ccc1-c1nc2cc[nH]cc-2n1 (stereo not given)
Control [1]: 159%
Control [2]: 122%
Response ratio [3]: 0.82
Response ratio [4]: 0.3
ED50 [5]: 1 mg/kg
Change [6]: 10%
Change [7]: -33%

COc1cc(SC)ccc1-c1nc2cc[nH]cc-2n1
Control [1]: 142%
Control [2]: 143%
Response ratio [3]: 0.59
Response ratio [4]: 0.6
ED50 [5]: 0.2 mg/kg
Change [6]: 9%
Change [7]: -17%
